Earlier results in patent US7112576B1, “Compositions and methods for cryopreservation of peripheral blood lymphocytes” (Regents of the University of Minnesota, priority 1999, dated 2006).

Test system: patients who received cryopreserved autologous cell grafts
Conditions: attributed to the infusion of DMSO

C[S+](C)[O-] [DMSO, dimethylsulfoxide]
patients exhibiting decreased heart rates: 98%
patients exhibiting dyspnea: 83%
patients exhibiting transient hypertension: 96%
